In US20220251152A1, “COMPOSITIONS AND METHODS FOR SELECTIVE PROTEIN DEGRADATION” (Novartis AG, priority 2019, published 2022):
Entries after “also recorded” stand apart in the source; their conditions may differ.

What was measured:
[1] = test system: CAR19 fused to HilD tag and/or FurON; test: Western blot of CAR19 fused to HilD tag and/or FurON in JNL cells; format: cell-based, human; conditions: CAR19-16GS-HilD-tag (construct 769); 10 μM lenalidomide
Method: Viruses were prepared from maxi preps and used to transduce JNL cells. Either 275 μL of viral supernatant or 700 μL of viral supernatant was used for transduction. JNL cells are Jurkat cells engineered with a luciferase gene under control of the NFAT promoter.
Briefly, cells were diluted to 0.5×10^6 in 3 mL total in 6 well dishes. […] Bazedoxifene was added at a final concentration of 1 μM to every well that contained a cell line expressing a fusion comprising FurON. […] Cells were incubated at 37° C. and 5% CO2 overnight.
Lysates were centrifuged, supernatant transferred to new tubes and protein quantities read by Lowry Assay (BioRad 5000111). Each sample was normalized to 30 μg total protein in a 20 μL volume with 4× sample buffer (Thermo Scientific NP0007) and 10× reducing agent (Thermo Scientific NP0009). Samples were subjected to Western blot analysis using a mouse anti-V5 antibody (Thermo Scientific MA5-15253) at 1:1000 dilution, a mouse anti-actin antibody (Sigma Aldrich A5441) at 1:10000 dilution, and/or a mouse anti-CD3z antibody (BD 551034) at 1:1000 dilution.
Cells were harvested and subjected to Western blot as described above using a mouse anti-actin antibody (Sigma Aldrich A5441) at 1:10000 dilution or a mouse anti-CD3zeta antibody (BD 551034) at 1:1000 dilution.

[2] = test system: CAR19 fused to HilD tag and/or FurON; test: Flow cytometry of surface CAR expression on JNL cells, 10 μM lenalidomide and/or bazedoxifene 24 hours; format: cell-based, human; conditions: FurON-CAR19 constructs with or without the HilD tag
Source text: Next, the surface expression of CAR19 on stably transduced JNL cells was examined by flow cytometry. […] On Day 2, cells were harvested, stained using biotinylated-protein L (Genscript, M00097) followed by PE conjugated streptavidin (Jackson Lab, 016-110-084), and subjected to flow cytometry analysis using Fortessa instrument.

[3] = test system: HilD-tagged CAR19 or FurON-CAR19 (NFAT luciferase reporter); test: JNL NFAT luciferase reporter assay, lenalidomide dose-response at three treatment time points; format: cell-based, human; conditions: for decrease of luminescence signal at the highest doses: construct 767; for reduction of luminescence signal: highest 2-3 doses (10 μM, 3.16 μM, and 1 μM)
Method: This study used the JNL cell line described above, which is a Jurkat cell line modified with an NFAT luciferase reporter. Co-culturing of CAR19-expressing JNL cells and CD19-expressing B cells activates the NFAT signaling, leading to luciferase expression.
For target cell co-culture, K562 cells or CD19-expressing K562 cells were added to each well containing JNL cells and cultured on a GNF Systems Ultra-high throughput screening system in a 37° C. and 5% CO2 incubator.

[4] = test system: Nalm6; test: In vivo tumor control by CART19.HilD after Nalm6 implant (total flux); parameters: species or system mice
Source text: Total flux of ROI is plotted against days post Nalm6 implant.

[5] = test system: CAR19 internal HilDtag; test: FACS and Western blot of cells expressing CAR19 internal HilDtag; format: cell-based; conditions: 10 μM lenalidomide
[6] = test system: CAR19 internal HilDtag (NFAT luciferase); test: JNL assay of CAR19 internal HilDtag with Nalm6 or K562 cells; format: cell-based; conditions: lenalidomide dose-response
Source text: FIGS. 43A, 43B, and 43C are diagrams showing characterization of an exemplary anti-CD19 internal HilDtag CAR construct.

[7] = test system: CAR19; test: Surface CAR expression in primary T cells expressing CAR19, flow cytometry; format: cell-based; conditions: lenalidomide 1, 0.1, 0.01 μM, 24 or 48 hrs, FIG. 31B
Source text: Cells were harvested and washed with PBS.

[8] = test system: Nalm6 cells; test: CART killing assay against CD19 positive target cells (luciferase); format: cell-based; conditions: 1 μM lenalidomide, 20 hr co-culture; FIG. 32C
Source text: (§1) The frozen CART cells were thawed in T cell media and co-cultured with either CD19 negative (K562 Cells) or CD19 positive target cells (Nalm6 cells), both expressing luciferase. Both the number of CART cells and the total number of T cells were normalized across samples; the latter was achieved by adding UTD cells. A titration of CART cells was done keeping the target cell number constant at 25,000 cells. The highest […] (E:T) explored was 20:1 and a 8 point dilution curve was used. […] The co-culture experiment was conducted in clear bottom black plates in a final volume of 200 μL. Upon a 20 hr incubation, 100 μL of supernatant was removed and cytokine levels were measured. To the rest, 100 μL Bright-Glo Luciferase assay reagent (substrate+enzyme) was added and incubated for 10 minutes, at room temperature. The % Killing was measured using the formula: Specific lysis (%)=(1−(sample luminescence/average maximal luminescence))*100.

[9] = test system: K562 Cells; test: CART killing assay against CD19 negative target cells (luciferase); format: cell-based; conditions: with or without 1 μM lenalidomide; FIG. 32A
Source text: as §1

[10] = test system: IFN gamma and IL2 secretion; test: Cytokine secretion by CART cells co-cultured with CD19 positive cells; format: cell-based; conditions: 1 μM lenalidomide
Source text: as §1

[11] = test system: luciferized Nalm-6; test: Nalm-6 xenograft mouse model, tumor burden by IVIS; format: in vivo, NSG mice
Method: (§2) Female NOD.Cg-Prkdc^scid Il2rg^tm1Wjl/SzJ mice (NSG) mice, 6-8 wk of age, were purchased from Jackson Laboratories. Animal studies were carried out under protocols approved by the Institutional Animal Care and Use Committee at NIBR. NSG mice were inoculated with 1.0×10^6 luciferized Nalm-6 intravenously. Sever days later, CAR-T cells were infused intravenously into tumor-bearing mice; unless otherwise stated, lenalidomide were dosed orally at the same time. Tumor burden was measured by IVIS and was quantified as radiance in the region of interest (ROI), which was generally the area of one mouse. Mice were euthanized upon losing more that 20% of body weight or development of hind limb paralysis. Graft vs. host disease was defined in indicated animals as hair loss, behavioral changes, and clear decrease in health not attributable to Nalm-6 luciferase signal.

[12] = test system: CART cells in peripheral blood; test: CART cells in peripheral blood of xenograft mice, flow cytometry; format: in vivo, NSG mice; conditions: after lenalidomide treatment; FIG. 35
Method: as §2

[13] = test system: CAR19 internal HilDtag; test: CAR19 internal HilDtag in JNL cells, FACS; format: cell-based; conditions: 10 uM lenalidomide, 24 hours; FIG. 43A
Method: FACS: Cells were harvested in u-bottom plates and washed using 1×PBS. […] After incubation the cells were washed using PBS.

[14] = test system: CAR19 internal HilDtag; test: CAR19 internal HilDtag in Jurkat cells, Western blot; format: cell-based; conditions: 10 uM lenalidomide, 24 hours; FIG. 43B
Source text: The gels were run in duplicate, one for actin and the other for either V5 or CD3Z.

[15] = test system: CAR19 internal HilDtag; test: Jurkat NFAT luciferase (JNL) CAR functional assay, CAR19 internal HilD-tag cells; format: cell-based; conditions: 8-point dilution, 10 uM top; FIG. 43C
Method: Cell plating: The CAR19 Internal HilD-tag cell line was diluted to 0.5×10^6 in 20 ml RPMI 1640 media (Thermo Fisher Scientific 11875-085) 10% FBS 1× pen/strep. 20 ul (0.5×10^6 cells) of this cell line was plated in a white solid-bottom 384 well plates (Greiner789163-G).
Plates were incubated for 15 hours at 37 C, 5% CO2.
B-cell addition and functional assay: K562 and Nalm6 cells were re-suspended at 0.5×10^6 cells/ml. […] Cells were stored at 37 C, 5% CO2 incubator for eight hours. Samples were then treated with 40 ul (1:1) Bright Glo (Promega E2620) and luminescence was read using Perkin Elmer's Viewlux with a 20 second exposure.

## Nc1cccc2c1CN(C1CCC(=O)NC1=O)C2=O (stereo not shown) [lenalidomide, 3-(4-amino-1-oxoisoindolin-2-yl)piperidine-2,6-dione]
[1]
  time at which degradation is first evident: ≤ 4 h
  time to maximal degradation: ≤ 8 h
[2]
  lenalidomide-dependent reduction of surface CAR levels: only observed when CAR19 was fused to the HilD tag
[3]; HilD-tagged CAR19 or lysine-free-HilD-tagged CAR19 (constructs 769, 770)
  effect on CD19-induced NFAT reporter signal: significantly reduced
[3]; construct 765 (FurON_CAR19) with bazedoxifene
  effect on reporter response without the HilD tag: had no impact on reporter response; also recorded: did not impact the luminescence signal
[3]; 8-hour treatment group (16 hr post-target cells)
  decrease of luminescence signal at the highest doses: 90%
[3]; 28-hour treatment group (4 hr pre-target cells)
  decrease of luminescence signal at the highest doses: 100%
[3]; 44-hour treatment group (20 hr pre-target cells)
  decrease of luminescence signal at the highest doses: 100%
[3]; construct 767 with bazedoxifene, lenalidomide 4 hours prior to K562+CD19 target cells
  reduction of CD19-induced reporter activation: ~80%
[3]; construct 769
  reduction of luminescence signal: ~100%
[3]; construct 770
  reduction of luminescence signal: ~100%
[4]; day 5 post CART injection (FIG. 36)
  tumor control, later treatment of lenalidomide: loss of tumor control
[4]; mice treated with CART-HilD (FIG. 36)
  tumor control, early injection of lenalidomide: absence of tumor control
[4]; total flux vs days post Nalm6 implant (FIG. 34)
  tumor control by CART19.HilD: abolishes the ability of CART19.HilD to control tumor growth
[5]; JNL cells
  CAR degradation (FACS): degradation
[5]; Jurkat cells, 24 hours
  CAR19 degradation (Western blot): degradation of CAR19
[6]
  response to CD19 positive Nalm6 cells: reduced this response in a dose-dependent manner
[7]
  expression of CAR19: did not affect expression of CAR19
[8]
  killing curve of CART19-HilD against CD19-positive cells: slightly shifted
[9]
  killing against CD19 negative cells: Low background killing
[10]; CD19 positive cells, FIG. 33A
  secreted IFN gamma by CART19 HilD cells: decreased
[10]; CD19 positive cells, FIG. 33B
  secreted IL2 by CART19 HilD cells: decreased
[10]; FIGS. 33A and 33B
  ability of CART19 to secrete cytokines: immune to the addition of lenalidomide
[11]; lenalidomide 30 mg/kg bid orally, FIG. 34
  ability of CART19.HilD to control tumor growth in vivo: totally abolish
[11]; lenalidomide alone, data not shown
  Nalm6 growth in vivo: little effect
[11]; lenalidomide dosed at day 5 after CART19HilD adoptive transfer, FIG. 36
  tumor relapse: tumor relapse a few days after lenalidomide dosing
[11]; lenalidomide dosed immediately after CART19.HilD transfer, FIG. 36
  ability to control tumor growth in vivo: lost the ability to control tumor growth in vivo
[12]
  CART cells in peripheral blood: Loss of CART cells in peripheral blood
[13]
  anti-CD19 CAR expression (FACS): degradation
[14]
  CAR19 protein (Western blot): degradation of CAR19
[15]
  response of CAR19 internal HilDtag JNL cells to CD19 positive Nalm6 cells: reduced this response in a dose-dependent manner
